Converted amounts (≈) assume the structure as drawn. “Also recorded” adds a separate entry of the source.
How the values were obtained:
[1] = test system: Cryptococcus neoformans ATCC 90113; assay: In vitro antimicrobial assay, C. neoformans; format: cell-based; conditions: ATCC90113, read-out: C. neoformans IC50
[2] = test system: Plasmodium falciparum (D6 clone); assay: In vitro antimalarial assay; format: cell-based; conditions: for IC50: Plasmodium falciparum, D6, 72 h, read-out: P. falciparum (D6 clone) IC50
[3] = test system: Plasmodium falciparum (W2 clone); assay: In vitro antimalarial assay; format: cell-based; conditions: W2, 72 h, read-out: P. falciparum (W2 clone) IC50
[4] = test system: Vero cells; conditions: African green monkey
[5] = test system: rat neonatal microglia; assay: Microglia LDH release; format: cell-based; conditions: for cytotoxicity (lactate dehydrogenase release) at highest concentration tested: 10 μM; for LDH LDH50: concentration causing 50% of maximal LDH release triggered by 0.1% Triton X-100
[6] = test system: Mycobacterium intracellulare ATCC 23068; assay: In vitro antimicrobial assay, M. intracellulare; format: cell-based; conditions: ATCC23068, read-out: M. intracellulare IC50
[7] = test system: Candida albicans ATCC 90028; assay: In vitro antimicrobial assay, C. albicans; format: cell-based; conditions: ATCC90028, read-out: C. albicans IC50
[8] = test system: malarial parasites in mice; conditions: oral administration 2×100 μmol/Kg; cited from earlier work
[9] = test system: Mycobacterium tuberculosis; conditions: cited from earlier work
[10] = test system: mice infected with malarial parasites; assay: In vivo antimalarial assay, intraperitoneal administration; conditions: for toxicity / adverse reactions: i.p. 10×3 mg/kg in infected mice; for Cure (number of mice without parasitemia through day 28 post infection): of 5 mice
[11] = test system: M. tuberculosis (H37Rv); assay: In vitro activity against M. tuberculosis; format: cell-based; conditions: Mycobacterium tuberculosis, read-out: M. tuberculosis (H37Rv) MIC
[12] = Stability in aqueous solution; format: physicochemical; conditions: over twenty-four months, exposure to light, room temperature, 0.05 N HCl aqueous solution (20 mg/mL)
[13] = test system: Staphylococcus aureus; conditions: cited from earlier work
[14] = test system: methicillin-resistant Staphylococcus aureus; conditions: cited from earlier work
[15] = test system: GSK-3β; conditions: panel of CDK-1, PKA, CDK-5, MAPK, GSK-3α; cited from earlier work
[16] = test system: CDK-5; conditions: panel of CDK-1, PKA, CDK-5, MAPK, GSK-3α; cited from earlier work
[17] = in vitro; conditions: dog, MDCK-MDR1, pH 7.4
[18] = test system: Plasmodium berghei infected mice; assay: In vivo antimalarial assay, oral single dose
[19] = test system: Plasmodium berghei infected mice; assay: In vivo antimalarial assay, multiple oral dose; conditions: 3×5 mg/Kg
[20] = test system: mice inoculated with P. berghei; assay: Initial in vivo evaluation; conditions: 3×10 mg/kg P.O.
[21] = i.p. 10×3 mg/kg, mean parasitemia in control group as 100%

C[C@@H]1[C@H](O)[C@@H](C)/C=C/C=C/C=C/C=C/C=C/C=C/C=C/[C@H](O[C@@H]2O[C@H](C)[C@@H](O)[C@H](N)[C@@H]2O)C[C@@H]2O[C@](O)(C[C@@H](O)C[C@@H](O)[C@H](O)CC[C@@H](O)C[C@@H](O)CC(=O)O[C@H]1C)C[C@H](O)[C@H]2C(=O)O [Amphotericin B, reference compound]
IC50 [1]: 0.75 µg/mL (≈ 0.812 µM)

O[C@]12C=C(c3nccc4c3[nH]c3ccccc34)[C@@H]3CCN(CCCCCCCC1)C[C@@]31C[C@@H]3CCCCCCN3[C@H]12 [Compound 3, 15,16,32,33-tetrahydromanzamine A]
IC50 [2]: 0.082 µg/mL (≈ 0.148 µM)

CC[C@@]1(O)CCCN2[C@@H](CC1)C[C@]13CN4CCCC/C=C\CC[C@](O)(C=C(c5nccc6c5[nH]c5c(O)cccc56)[C@@H]1CC4)[C@H]23 [Compound 18, 31-Ethylmanzamine F]
IC50 [3]: 0.086 µg/mL (≈ 0.141 µM)
no toxicity against Vero cells at the highest tested concentration [4]: > 4.6 µg/mL

COC(=O)c1cc2c([nH]c3ccccc32)c(C2=C[C@@]3(O)CC/C=C\CCCCN4CC[C@@H]2[C@]2(C[C@@H]5/C=C\CCCCN5[C@H]23)C4)n1 [Compound 21b, Methyl manzamine A-3-carboxylate]
cytotoxicity (lactate dehydrogenase release) at highest concentration tested [5]: minimal cytotoxicity; also recorded: no toxicity
LDH LDH50 [5]: >10 µM

C[C@@H]1CC[C@H]2[C@@H](C)C(=O)O[C@@H]3O[C@@]4(C)CC[C@@H]1[C@]32OO4 [Artemisinin, reference compound]
IC50 [3]: 0.008 µg/mL (≈ 0.0283 µM)

CC(C)(C)Cn1c2ccccc2c2ccnc(C3=C[C@@]4(O)CC/C=C\CCCCN5CC[C@@H]3[C@]3(C[C@@H]6/C=C\CCCCN6[C@H]34)C5)c21 [Compound 6g, 9N-neopentylmanzamine A]
cytotoxicity (lactate dehydrogenase release) at highest concentration tested [5]: minimal cytotoxicity; also recorded: no toxicity
LDH LDH50 [5]: >10 µM

O=C(O)c1cn(C2CC2)c2cc(N3CCNCC3)c(F)cc2c1=O [Ciprofloxacin, reference compound]
IC50 [6]: 0.3 µg/mL (≈ 0.905 µM)

[O-][N+]12CCCC/C=C\CC[C@]3(O)C=C(c4nccc5c4[nH]c4ccccc45)[C@H](CC1)[C@]1(C[C@@H]4/C=C\CCCC[N@+]4([O-])[C@H]13)C2 [Compound 13, 21, 27-N-oxamanzamine A]
IC50 [2]: 0.017 µg/mL (≈ 0.0293 µM)
IC50 [3]: 0.067 µg/mL (≈ 0.115 µM)

Oc1cccc2c1[nH]c1c(C3=C[C@@]4(O)CC/C=C\CCCCN5CC[C@@H]3[C@]3(CC6/C=C\CCCCN6[C@H]34)C5)nccc12 (some centres unmarked) [Compound 2, 8-hydroxymanzamine A]
IC50 [2]: 0.006 µg/mL (≈ 0.0106 µM)
IC50 [3]: 0.008 µg/mL (≈ 0.0142 µM)
IC50 [7]: 3.5 µg/mL (≈ 6.2 µM)
IC50 [1]: 2 µg/mL (≈ 3.54 µM)
IC50 [6]: 0.1 µg/mL (≈ 0.177 µM)
reduction in parasitemia [8]: 90%
inhibition of Mycobacterium tuberculosis [9]: 98-99%
Survival (number of animal survived day 28/total animal in group) ([10]; i.p. 10×3 mg/kg): 5/5
toxicity / adverse reactions [10]: mild reversible weight loss
MST (mean survival time) ([10]; i.p. 10×3 mg/kg, * death related to toxicity): > 28 days
%parasitemia suppression Day 5 [10, 21]: 100%
%parasitemia suppression Day 7 [10, 21]: 100%
Cure (number of mice without parasitemia through day 28 post infection) ([10]; i.p. 10×3 mg/kg): 4/5

CCCCn1c2ccccc2c2ccnc(C3=C[C@@]4(O)CC/C=C\CCCCN5CC[C@@H]3[C@]3(C[C@@H]6/C=C\CCCCN6[C@H]34)C5)c21 [Compound 6d, 9N-butylmanzamine A]
cytotoxicity (lactate dehydrogenase release) at highest concentration tested [5]: minimal cytotoxicity; also recorded: no toxicity
LDH LDH50 [5]: >10 µM

CC(C)CCn1c2ccccc2c2ccnc(C3=C[C@@]4(O)CC/C=C\CCCCN5CC[C@@H]3[C@]3(C[C@@H]6/C=C\CCCCN6[C@H]34)C5)c21 [Compound 6f, 9N-isopentylmanzamine A]
LDH LDH50 [5]: >10 µM

O[C@]12C=C(c3nccc4c3[nH]c3ccccc34)[C@@H]3CCN(CCCC/C=C\CC1)C[C@@]31C[C@@H]3/C=C\CCCCN3[C@H]12 [Compound 1, manzamine A]
IC50 [2]: 0.0045 µg/mL (≈ 0.0082 µM)
IC50 [3]: 0.008 µg/mL (≈ 0.0146 µM)
MIC [11]: 1.5 µg/mL (≈ 2.73 µM)
IC50 [7]: 2 µg/mL (≈ 3.64 µM)
IC50 [1]: 1.5 µg/mL (≈ 2.73 µM)
IC50 [6]: 0.35 µg/mL (≈ 0.638 µM)
cytotoxicity (lactate dehydrogenase release) at highest concentration tested [5]: minimal cytotoxicity
LDH LDH50 [5]: >10 µM
stability (decomposition) in aqueous solution [12]: No significant decomposition
reduction in parasitemia [8]: 90%
inhibition of Mycobacterium tuberculosis [9]: 98-99%
IC50 against Staphylococcus aureus [13]: 0.5 µg/mL (≈ 0.911 µM)
IC50 against methicillin-resistant Staphylococcus aureus [14]: 0.7 µg/mL (≈ 1.28 µM)
inhibition of GSK-3β [15]: specifically inhibited
inhibition of CDK-5 [16]: specifically inhibited
efflux ratio at 2 h, 50 μM [17]: < 1
behavioral signs of toxicity ([18]; single oral dose 100 mg/kg): did not show any behavioral signs of toxicity
signs of toxicity ([18]; single oral dose 200 or 300 mg/kg): began to exhibit signs of toxicity beyond weight loss
Survival (number of animal survived day 28/total animal in group) ([10]; i.p. 10×3 mg/kg): 0/5
toxicity / adverse reactions [10]: toxic
%parasitemia suppression Day 5 [10, 21]: 100%
Cure (number of mice without parasitemia through day 28 post infection) ([10]; i.p. 10×3 mg/kg): 0/5

O[C@]12C=C(c3nccc4c3[nH]c3ccccc34)[C@@H]3CCN(CCCC/C=C\CC1)C[C@@]31C[C@@H]3CCCCCCN3[C@H]12 [Compound 5, Dihydromanzamine A]
IC50 [2]: 0.2 µg/mL (≈ 0.363 µM)

COc1ccc2[nH]c3c(C4=C[C@@]5(O)CC/C=C\CCCCN6CC[C@@H]4[C@]4(C[C@@H]7/C=C\CCCCN7[C@H]45)C6)nccc3c2c1 [Compound 21a, 6-Methoxymanzamine A]
cytotoxicity (lactate dehydrogenase release) at highest concentration tested [5]: minimal cytotoxicity; also recorded: no toxicity
LDH LDH50 [5]: >10 µM

O=C1CCCN2[C@@H](CC1)C[C@]13CN4CCCC/C=C\CC[C@](O)(C=C(c5nccc6c5[nH]c5c(O)cccc56)C1CC4)[C@H]23 (some centres unmarked) [Compound 14, manzamine F]
IC50 [2]: 0.78 µg/mL (≈ 1.34 µM)
IC50 [1]: 6.5 µg/mL (≈ 11.2 µM)

CCN(CC)CCCC(C)Nc1ccnc2cc(Cl)ccc12 (centres unmarked) [Chloroquine]
IC50 [2]: 0.016 µg/mL (≈ 0.05 µM)
IC50 [3]: 0.155 µg/mL (≈ 0.485 µM)
MST Days [19]: > 30 days
Inhibition of Parasitemia (%) ([19]; day 5 post infection vs untreated controls): 88%
Average % Parasitemia ([19]; day 7 post infection): 4.5%
Average % Parasitemia ([19]; day 10 post infection): 7.8%
Average % Parasitemia ([19]; day 14 post infection): 13.5%
Average % Parasitemia ([19]; day 21 post infection): 21.7%
Average % Parasitemia ([19]; day 28 post infection): 39.3%
mean survival time [20]: 14.3 days

CC(=O)Oc1cccc2c1[nH]c1c(C3=C[C@@]4(O)CC/C=C\CCCCN5CC[C@@H]3[C@]3(C[C@@H]6/C=C\CCCCN6[C@H]34)C5)nccc12 [Compound 9, 8-Acetoxymanzamine A]
IC50 [7]: 1.5 µg/mL (≈ 2.47 µM)
IC50 [1]: 1.5 µg/mL (≈ 2.47 µM)
IC50 [6]: 0.1 µg/mL (≈ 0.165 µM)

N/N=C1/CCCN2[C@@H](CC1)C[C@]13CN4CCCC/C=C\CC[C@](O)(C=C(c5nccc6c5[nH]c5c(O)cccc56)[C@@H]1CC4)[C@H]23 [Compound 15, Manzamine F-31-hydrazone]
IC50 [2]: 0.029 µg/mL (≈ 0.0488 µM)
no toxicity against Vero cells at the highest tested concentration [4]: > 4.6 µg/mL

Oc1cccc2c1[nH]c1c(C3=C[C@@]4(O)CC/C=C\CCCCN5CC[C@@H]3[C@]3(C[C@@H]6CC[C@H](O)CCCN6[C@H]34)C5)nccc12 [Compound 16, 31β-Hydroxymanzamine F]
P. falciparum (D6 clone) IC50 ([2]; chloroquine sensitive D6 clone, 72 h): did not improve the antimalarial activity

Source: paper PMC2834284 (Journal of medicinal chemistry, 2010)
